Assay results reported in patent publication US20110178072A1, “STEREOSPECIFICITY OF METHYLSULFINYL REDUCTION” (priority 2008, published 2011).

Legend:
yeast fRMsr = biological target: T1, yeast fRMsr (Saccharomyces cerevisiae, UniProt P36088); assay: Activity assay of purified recombinant yeast fRMsr towards free Met sulfoxides (HPLC, OPA derivatization); type: biochemical, S. cerevisiae; settings: recombinant His-tagged yeast fRMsr
T1 construct: His-tag (C); made in house; host or cells: E. coli BL21 (DE3), pET21b
T1 sequence (P36088 1-180): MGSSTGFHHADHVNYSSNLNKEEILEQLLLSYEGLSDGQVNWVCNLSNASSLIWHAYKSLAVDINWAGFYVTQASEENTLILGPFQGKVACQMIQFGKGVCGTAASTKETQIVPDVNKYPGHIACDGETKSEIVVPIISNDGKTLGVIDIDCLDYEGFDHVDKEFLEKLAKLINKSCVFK
Excerpt: Cloning and expression of yeast fRMsr—Characterization of S. cerevisiae fRMsr (YKL069W) is described in Le, D. T., et al. (2009) Functional analysis of free methionine-R-sulfoxide reductase from Saccharomyces cerevisiae. J Biol Chem., 284(7), 4354-4364. Briefly, a yeast fRMsr cDNA, which encodes a protein homologous to fRMsr from E. coli, was amplified from S. cerevisiae genomic DNA and subcloned into pET21b vector (Novagen) using primers 5′-AAACATATGATGGGCTCATCAACCGGGTTTC-3′ (sense; SEQ ID NO:1) and 5′-AAGCGGCCGCGACACATGATTTATTAATTAATTTAGCAAG-3′ (antisense; SEQ ID NO:2). After transformation into BL21 (DE3) E. coli, the subcloned sequence was verified by DNA sequencing. Cells with the plasmid in 500 mL LB medium containing 100 μg/mL ampicillin were grown until OD600 reached 0.6-0.8, followed by addition of IPTG to 0.3 mM. Protein expression was at 30° C. for 4 hours, followed by harvesting cells by centrifugation at 4,000 rpm for 5 minutes. Cells were washed with PBS and stored at −70° C. until use.
To purify the protein, a cell pellet was dissolved in resuspension buffer (Tris-HCl, pH 7.5, 15 mM imidazole, 300 mM NaCl), and PMSF was added to a final concentration of 0.5 mM. After sonication, the supernatant was collected by centrifugation at 8,000 rpm for 30 minutes. The supernatant was loaded onto a cobalt Talon resin (Clontech) pre-equilibrated with resuspension buffer. Following washing with the same buffer, the protein was eluted with elution buffer (Tris-HCl, pH 7.5, 300 mM imidazole, 300 mM NaCl). Fractions containing yeast fRMsr were pooled together and dialyzed overnight against PBS in a dialysis cassette (Pierce).
Activity assays of fRMsr—Reaction mixture (40 μL) included 50 mM DTT, 1 mM substrate (Met-RO or Met-SO), and purified enzyme or cell lysate prepared by treatment with CelLytic™M cell lysis reagent (Sigma). 20 μL of the reaction mixture was mixed with 2 μL of TCA and subjected to OPA derivatization as described above and then injected onto the column to measure endogenous Met level in the samples. An additional 20 μL from the same original reaction mixture were incubated at 37° C. for 30 minutes and then subjected to OPA derivatization by the same procedure using TCA. After derivatization of the sample (2-5 μL) by adding OPA solution to 100 μL as a final volume, 50 μL of the mixture were subjected to an HPLC separation as described above.

mouse MsrA = biological target: T2, mouse MsrA (Mus musculus, UniProt Q9D6Y7); assay: Reduction of methylsulfinyl compounds by mouse MsrA (HPLC/GC analysis); type: biochemical; settings: DTT as a reductant
T2 sequence (Q9D6Y7 21-233): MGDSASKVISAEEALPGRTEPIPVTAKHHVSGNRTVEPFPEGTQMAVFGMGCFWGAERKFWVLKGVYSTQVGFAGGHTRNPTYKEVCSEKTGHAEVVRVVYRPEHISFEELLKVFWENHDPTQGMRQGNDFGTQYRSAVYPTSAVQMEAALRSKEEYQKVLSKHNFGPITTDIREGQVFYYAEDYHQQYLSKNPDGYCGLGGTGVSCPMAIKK
Experimental: (§1) The isothiocyanate group in R,S-sulforaphane reacts with sulfhydryls to form conjugated compounds. First, the compound was treated with excess DTT (which has two free sulfhydryl groups) to conjugate the isothiocyanate group of R,S-sulforaphane or S-sulforaphane with the sulfhydryl group of DTT and the resulting adducts were then used as substrates for mouse MsrA and mouse MsrB2. The reduction of the DTT-sulforaphane adduct was analyzed using HPLC analysis of the adduct with buffer (as control; FIG. 12A), mouse MsrB2 (FIG. 12B), and mouse MsrA (FIG. 12C). The arrows indicate the migration of the DTT-erucin adduct. […] FIG. 13 illustrates the HPLC analysis of the DTT-R-sulforaphane adduct incubated with buffer (as control) (FIG. 13A), mouse MsrA (FIG. 13B), and mouse MsrB2 (FIG. 13C). Again, the arrows show the migration of the DTT-erucin adduct.
(§2) Mesoridazine, which has a mild effect on treating schizophrenia, was examined to determine its reduction by yeast fRMsr, mouse MsrB2, and mouse MsrA (FIG. 14). The peak of m/z 387.6 corresponds to the molecular weight of mesoridazine and the peak of m/z 371.6 corresponds to the molecular weight of thioridazine. FIG. 14B details the HPLC analysis of mesoridazine incubated with mouse MsrB2 and DTT. FIG. 14C provides the HPLC analysis of mesoridazine incubated with yeast fRMsr and DTT. FIG. 14D illustrates the specific activities of various Msrs for the reduction of mesoridazine (left to right): mouse MsrA in the presence of DTT as a reductant, mouse MsrA in the presence of the thioredoxin reducing system, mouse MsrB2 in the presence of DTT, and yeast fRMsr in the presence of DTT.
(§3) The reduction of triclabendazole sulfoxide was examined. This compound has been used to treat liver fluke, Fasciola hepatica and Fasciola gigantica, in sheep, goat, and cattle as a form of triclabendazole. Triclabendazole can be metabolized to several different forms including triclabendazole sulfoxide, which is an oxidized form of methylsulfide group, in biological systems. FIG. 15A provides an HPLC analysis of triclabendazole sulfoxide incubated with mouse MsrA and DTT. The peak of m/z 375.2 and 377.2 correspond to the molecular weight of triclabendazole sulfoxide and the peak of m/z 359.2 and 361.2 correspond to the molecular weight of triclabendazole. FIG. 15B illustrates an HPLC analysis of triclabendazole sulfoxide incubated with mouse MsrB2 and DTT. FIG. 15C details an HPLC analysis of triclabendazole sulfoxide incubated with yeast fRMsr and DTT. FIG. 15D illustrates the specific activities of various Msrs for the reduction of triclabendazole sulfoxide (left to right): mouse MsrA in the presence of DTT as a reductant, mouse MsrA in the presence of the thioredoxin reducing system, mouse MsrB2 in the presence of DTT, and yeast fRMsr in the presence of DTT.
(§4) Another methylsulfinyl-containing drug, sulmazole, was tested as a substrate for Msrs. This drug is pharmacologically active as a cardiotonic agent and is a phosphodiesterase inhibitor. FIG. 16A details an HPLC analysis of sulmazole incubated with mouse MsrA and DTT. The peak of m/z 288.3 corresponds to the molecular weight of sulmazole and the peak of m/z 272.3 corresponds to the molecular weight of reduced form of sulmazole. FIG. 16B illustrates an HPLC analysis of sulmazole incubated with mouse MsrB2 and DTT. FIG. 16C provides an HPLC analysis of sulmazole incubated with yeast fRMsr and DTT. FIG. 16D details the specific activities of various Msrs for the reduction of sulmazole (left to right): mouse MsrA in the presence of DTT as a reductant, mouse MsrA in the presence of the thioredoxin reducing system, mouse MsrB2 in the presence of DTT, and yeast fRMsr in the presence of DTT.
DMSO, which is used as a preservative for stem cells, solvent for drugs, and a drug itself with anti-inflammatory and free radical scavenging properties, was studied for its reduction by Msrs. FIG. 17A details a GC analysis of DMSO incubated with mouse MsrA and DTT. […]

mouse MsrB2 = mouse MsrB2 (Mus musculus, UniProt Q78J03); assay: Reduction of methylsulfinyl compounds by mouse MsrB2 (HPLC/GC analysis); type: biochemical; settings: in the presence of DTT
Experimental: as §1, §2, §3
as §4, with “FIG. 16D details the specific activities of various Msrs for the reduction of sulmazole (left to right): mouse MsrA in the presence of DTT as a reductant, mouse MsrA in the presence of the thioredoxin reducing system, mouse MsrB2 in the presence of DTT, and yeast fRMsr in the presence of DTT.” left out

[1] = test system: MsrA-knockdown SK-Hep1 cells; assay: Growth of MsrA-knockdown SK-Hep1 cells on Met and Met sulfoxide media; type: cell-based, human; settings: 0.1 mM, 96 hours
Experimental: Proliferation Assay—Cell growth was quantified using colorimetric MTS assay (Promega). Cells in regular DMEM medium were plated in 96-well plates at 5×10^3 cells/well, washed with PBS, and specialized DMEM media were added that contained Met, Met-SO, Met-RO, or Met-RSO 24 hours after plating. To assay for cell proliferation, a tetrazolium compound [3-(4,5-dimethylthiazol-2-yl)-5-(3-carboxymethoxyphenyl)-2-(4-sulfophenyl)-2H-tetrazolium, inner salt; MTS] and an electron coupling reagent (phenazine methosulfate; PMS) were mixed according to the manufacturer's protocol and then 20 μL of the mixture were added to 100 μL of phenol red-excluded media that further replaced cell culture media. After 90 minutes of incubation at 37° C. in the atmosphere of 5% CO2, cell proliferation was measured at indicated time periods from 0 to 96 hours at 450 nm in a plate reader. Direct counting of viable cells using 0.2% trypan blue was done in 6-well plates. Knockdown of MsrA in SK-Hep1 cells by siRNA—Double stranded siRNAs (Dharmacon) for targeting human MsrA mRNA were used to knockdown this gene in SK-Hep1 cells. Cells were transfected with siRNA by using DharmaFECT™ Transfection Reagent (Dharmacon) according to the manufacturer's protocol. Proliferation of these cells was assayed 60 hours after transfection in comparison with control transfected cells.

selenoproteins = assay: 75Se metabolic labeling of SK-Hep1 cells grown on Met and Met sulfoxide media; type: cell-based, human; settings: 0.1 mM of each amino acid
Experimental: ^75 Se Metabolic labeling—SK-Hep1 cells were plated in 6-well plates at 7.5×10^4 cells/well in 1.5 mL of regular DMEM medium. After 24 hours, cells were washed with PBS and the medium was changed to modified DMEM media containing Met, Met-SO, Met-RO, or Met-RSO (0.1 mM of each amino acid). 0.01 mCi of freshly neutralized [^75Se]selenious acid (specific activity 1,000 Ci/mmol, University of Missouri Research Reactor) was added in each well at 48 hours after changing the medium and cells were incubated at 37° C. for 24 hours in 5% CO2 atmosphere, followed by harvesting the cells. Cell extracts (30 μg of total protein) were electrophoresed on 10% Bis-Tris gels and transferred onto PVDF membranes (Invitrogen). The ^75Se radioactivity pattern was visualized by using a PhosphorImager (GE Health Care).

CBS = assay: Western blot analysis of CBS in SK-Hep1 cells grown on Met and Met sulfoxide media; type: cell-based, human; settings: SK-Hep1 cells, 0.1 mM
Experimental: Analysis of SK-Hep1 and fRMsr-transfected SK-Hep1 cells—SK-Hep1 and fRMsr-transfected SK-Hep1 cells were plated in 6-well plates at 7.5×10^4 cells/well in regular DMEM medium. The medium was changed to Met-free DMEM supplemented with either Met or individual Met sulfoxides at 24 hours after plating. Cells were then collected every 24 hours until 96 hours. Protein concentration was measured by the Bradford assay and the samples were probed by standard immunoblot assays with polyclonal MsrA (kindly provided by Bertrand Friguet), cystathionine beta synthase (CBS) (kindly provided by Ruma Banerjee), and activating transcription factor 3 (ATF3) (Santa Cruz Biotechnology) antibodies.

SK-Hep1 cells = assay: Growth and morphology of SK-Hep1 cells in Met-free DMEM supplemented with Met or Met sulfoxides (MTS proliferation assay, microscopy); type: cell-based, human; settings: Met-free DMEM supplemented with 0.1 mM of the compound
Experimental: Cell culture—SK-Hep1 (ATCC: HTB-52™) and fRMsr-transfected SK-Hep1 cells were cultured in DMEM or Met-free DMEM (GIBCO) media, supplemented with 0.1 mM Met, 0.1 mM Met-RO, 0.1 mM Met-SO, or 0.1 mM Met-RSO. […] Thus, 0.1 mM Met sulfoxides were used in the experiments described below. Cell culture experiments, with the exception of a proliferation assay, were carried out in 6-well plates, and cells were maintained at 37° C. in a 5% CO2 atmosphere. Proliferation Assay—Cell growth was quantified using colorimetric MTS assay (Promega). Cells in regular DMEM medium were plated in 96-well plates at 5×10^3 cells/well, washed with PBS, and specialized DMEM media were added that contained Met, Met-SO, Met-RO, or Met-RSO 24 hours after plating. To assay for cell proliferation, a tetrazolium compound [3-(4,5-dimethylthiazol-2-yl)-5-(3-carboxymethoxyphenyl)-2-(4-sulfophenyl)-2H-tetrazolium, inner salt; MTS] and an electron coupling reagent (phenazine methosulfate; PMS) were mixed according to the manufacturer's protocol and then 20 μL of the mixture were added to 100 μL of phenol red-excluded media that further replaced cell culture media. After 90 minutes of incubation at 37° C. in the atmosphere of 5% CO2, cell proliferation was measured at indicated time periods from 0 to 96 hours at 450 nm in a plate reader. Direct counting of viable cells using 0.2% trypan blue was done in 6-well plates. Microscopy—A Nikon TE-300 Widefield Microscope was used to prepare images of SK-Hep1 cells grown on different Met and Met sulfoxide media. Microscopy analyses were carried out in the University of Nebraska Microscopy Core Facility.

Sequence of mouse MsrB2 (Q78J03 43-175): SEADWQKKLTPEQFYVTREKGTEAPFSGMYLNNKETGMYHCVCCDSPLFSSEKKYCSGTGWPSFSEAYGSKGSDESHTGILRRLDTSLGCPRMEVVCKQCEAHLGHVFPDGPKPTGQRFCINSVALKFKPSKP

Row | Activity of recombinant yeast fRMsr protein towards the substrate (yeast fRMsr) | Reduction by mouse MsrA (mouse MsrA) | Reduction by mouse MsrB2 (mouse MsrB2) | SMILES | Selenoprotein patterns (75Se labeling) (selenoproteins) | Growth of SK-Hep1 cells (SK-Hep1 cells) | also measured
1 | inactive | – | – | CN(C)c1ccc(/N=N/c2ccc(S(=O)(=O)N[C@@H](CC[S@@+](C)[O-])C(=O)O)cc2)cc1 [dabsyl-Met-RO] | – | – | –
2 | – | cannot be reduced | cannot be reduced | C[S@@+]([O-])CCCCNC(=S)SCC(O)C(O)CS (stereo partly drawn) [DTT-R-sulforaphane adduct] | – | – | –
3 | inactive | – | – | CN(C)c1ccc(N=Nc2ccc(S(=O)(=O)N[C@@H](CC[S@+](C)[O-])C(=O)O)cc2)cc1 [dabsyl-Met-SO] | – | – | –

Second part, the compound before the results:

Row | SMILES | Activity of recombinant yeast fRMsr protein towards the substrate (yeast fRMsr) | Reduction by mouse MsrA (mouse MsrA) | Reduction by mouse MsrB2 (mouse MsrB2) | Selenoprotein patterns (75Se labeling) (selenoproteins) | Growth of SK-Hep1 cells (SK-Hep1 cells) | also measured
4 | C[S@+]([O-])CCCCNC(=S)SCC(O)C(O)CS (stereo partly drawn) [DTT-S-sulforaphane adduct] | – | can be reduced | not by mouse MsrB2 | – | – | –
5 | CSCC[C@H](N)C(=O)O [Met, methionine] | – | – | – | No difference was observed | grew best | Growth of MsrA-deficient cells [1]: still supported their growth; Expression of CBS (CBS): maintained stable CBS levels
6 | C[S+]([O-])CC[C@H](N)C(=O)O (stereo partly drawn) [Met-RSO, L-Met-R,S-sulfoxide] | – | – | – | No difference was observed | could also proliferate | –
